The results in this text go back to publication PMC9282638, “A Suite of Activity-Based Probes To Dissect the KLK Activome in Drug-Resistant Prostate Cancer” (Journal of the American Chemical Society, 2021).

One assay has as its target T1, KLK3 (Homo sapiens, UniProt P07288).
T1 construct: endogenous in cells; host or cells: LNCaP cells treated with 10 nM DHT; conditioned medium
The assay is described as follows: Probe labeling of KLK3 in LNCaP conditioned media (in-gel fluorescence / streptavidin blot). It counts as biochemical. As to conditions: LNCaP CM, 1 h treatment. The source says:
An optimized tetrapeptide designed to occupy the KLK S1–S4 subsites was envisaged for the ABP specificity element, grafted onto a peptidyl-diphenyl phosphonate (DPP) warhead which reacts specifically and exclusively with the Ser195 residue in the KLK3 active site.[21] […] We therefore replaced the boronic acid in 2 with the DPP moiety in 1 and capped the N-terminus with a tetramethyl rhodamine (TAMRA) fluorophore to afford 3, which served as a prototype ABP for KLK3. A mixed solid-phase and solution-phase approach was used for the synthesis of peptidyl-DPP compounds, as described previously (Figures S1 and S2).[24] […]
Despite exquisite selectivity, maximal KLK3 labeling was achieved only after treatment with 20 μM 3 for 1 h. We therefore optimized probe potency by systematically modifying each amino acid side chain in the P1–P4 positions of a morpholine-capped peptidyl-DPP inhibitor scaffold and determined the potency of each analogue using competitive-ABPP against 3.[25],[26] […] Second generation biotinylated 20 and fluorescent 21 ABPs (Figures 2G and S7) based on this scaffold retained exquisite selectivity for KLK3 in LNCaP CM, but in contrast to first-generation ABP 3 achieved maximum labeling at only 1 μM and readily detectable labeling down to 130 nM (Figures 2H and S7). […]

The target of another assay is T2, KLK14 (Homo sapiens, UniProt Q9P0G3).
T2 construct: purchased R&D Systems
T2 sequence (Q9P0G3 25-251): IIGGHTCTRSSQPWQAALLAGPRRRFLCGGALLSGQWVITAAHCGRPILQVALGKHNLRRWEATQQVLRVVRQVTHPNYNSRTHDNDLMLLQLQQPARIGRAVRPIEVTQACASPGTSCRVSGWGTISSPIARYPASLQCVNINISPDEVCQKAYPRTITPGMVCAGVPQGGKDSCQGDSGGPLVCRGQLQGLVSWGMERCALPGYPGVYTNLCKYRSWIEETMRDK
The assay is described as follows: Inhibition of KLK14 after incubation with 50 µM probe (Figure S8). It counts as biochemical. To be noted: 30 minutes.

T1 sequence (P07288 25-261): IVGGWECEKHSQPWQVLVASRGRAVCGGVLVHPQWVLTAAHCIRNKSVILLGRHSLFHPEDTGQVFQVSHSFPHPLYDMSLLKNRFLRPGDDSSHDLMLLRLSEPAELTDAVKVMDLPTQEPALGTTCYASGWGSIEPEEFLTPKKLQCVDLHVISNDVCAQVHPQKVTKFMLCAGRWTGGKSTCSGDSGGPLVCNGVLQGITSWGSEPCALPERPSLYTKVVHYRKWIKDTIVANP

Turning to `CCC[C@H](NC(=O)[C@H](CCC(N)=O)NC(=O)[C@H](CC(N)=O)NC(=O)CCCCCNC(=O)CCCC[C@@H]1SC[C@@H]2NC(=O)N[C@@H]21)C(=O)NC(c1ccc(C(N)=O)cc1)P(=O)(Oc1ccccc1)Oc1ccccc1` (stereo partly drawn) [compound 20], on KLK3, the “concentration at which maximal KLK3 labeling was achieved” value came out at 1 µM and the “lowest concentration with readily detectable KLK3 labeling” value worked out at 130 nM. Besides, at KLK14, the “inhibition of KLK14” value is “no inhibition”.
